According to US7709458B2, “Method for inhibiting cancer cell proliferation or increasing cancer cell apoptosis” (priority 2004, dated 2010):
Read-outs that look alike come from different tables or passages of the source.

Experiments:
[1] = tested on: p44/42 (ERK1/2) mitogen-activated protein kinase (MAPK) cascade; experiment: Acetylcholine- and EGF-induced activation of p44/42 MAPK signaling in H508 cells; format: cell-based, human
[2] = tested on: NRK 52E cells (normal rat kidney cells); experiment: Cytotoxicity on normal rat kidney cells using the Alamar blue assay; format: cell-based; details: for decrease in fluorescence: 200 μM
Description: Toxicity assays in normal rat kidney cells (NRK). The toxicity of c-di-GMP in independent cell lines was tested. In these studies, acute (24 and 72 h) toxicity in NRK 52 E cells (normal rat kidney cells) was determined using the Alamar blue assay. NRK 52E cells are a rat renal tubule epithelial cell line originally cloned from a mixed culture termed NRK. The Alamar blue assay is designed to measure the proliferation of cell lines and is used routinely to determine the cytotoxicity of various chemicals. […] It is minimally toxic to most living cells.
Chemical toxicity on normal rat kidney cells. To assess chemical toxicity, the Alamar blue assay was performed using NRK 52E cells plated at near confluence in 96-well tissue culture plates (Costar). Cells were maintained in DMEM containing 10% FBS and penicillin/streptomycin in tissue culture flasks. Cells were harvested by trypsinization, resuspended in the basal medium and counted. NRK 52E cells were plated at a density of 4-5×10^4 cells/well. After a 24-h attachment/acclimation interval, the tissue culture media was aspirated and replaced with the appropriate test solution. For most experiments, 8 wells were used for each solution, i.e., each solution was tested in one column of 8 replicate wells. […] Plates were incubated for 24 or 72 h and observed under phase contrast microscopy. All solutions were aspirated and replaced with fresh DMEM containing Alamar blue dye (10% vol/vol). Plates were incubated at 37° C. for an additional 6 h after which fluorescence was measured using a fluorimetric plate reader (Cytofluor). Data were collected as raw fluorescence units and expressed as a percentage of the solvent control using average values from all 8 wells for each group (mean fluorescence test/mean fluorescence control×100=% control fluorescence).
(§1) Cell proliferation assay on normal rat kidney cells. To assess potential effects on cell proliferation, the Alamar blue assay was performed using NRK 52E cells. Cells were harvested as described for the toxicity assay and seeded in 96-well tissue culture plates at a density of about 3×10^3 cells/well and evaluated over a 96-h time frame. Cells were allowed to attach for 3 h in the basal, serum-containing DMEM medium. After attachment, the media was aspirated and replaced with test solutions according to the design described for the toxicity assay with the addition of the Alamar blue dye to each solution (as 10% vol/vol). The reduction of Alamar blue dye was measured in a fluorimetric plate reader (Cytofluor) at 24, 48, 72 and 96 h. Morphological observation was also performed to ensure that the cell patterns matched the fluorescence data. Data were collected as raw fluorescence units and expressed as a percentage of the solvent control using the average values from all 8 wells used for each group (mean fluorescence test/mean fluorescence control×100=% control fluorescence) at each time period. As a further check to ensure that Alamar blue was not itself exerting some growth or inhibitory effects the experiments were also performed by plating cells at the lower density with exposures for 72 h without Alamar blue in the media. After the 72-h growth period, the media was aspirated and fresh DMEM containing Alamar blue (10% vol/vol) was added to all wells. Cells were further incubated in the Alamar blue solution for 6 h and fluorescence measured and data collected and expressed as described.

[3] = tested on: H508 human colon cancer cells; experiment: H508 colon cancer cell proliferation assay (sulforhodamine B colorimetric assay); format: cell-based; details: 50 μM
[4] = tested on: NRK 52E cells (normal rat kidney cells); experiment: Cell proliferation assay on normal rat kidney cells (Alamar blue, 24-96 h); format: cell-based
Description: as §1

[5] = Solubility and stability of c-di-GMP; format: physicochemical
[6] = tested on: SH-SY5Y human neuroblastoma cells; experiment: cells; format: cell-based
Description: Toxicity assays in human neuroblastoma cells. SH-SY5Y human neuroblastoma cells were cultured in DMEM/Ham's F-12 (1:1) media, supplemented with 10% FBS, penicillin (100 IU/ml), streptomycin (100 μg/ml), and L-glutamine (2 mM); the cell culture medium was replaced every two days. Cultures were maintained at 37° C. in 95% air-5% CO2 in a humidified incubator. A standard curve established the linear range for the assay of approximately 1000-7000 cells/well for a 96 well plate. All data reported were within this range. MTS assay concentration-response curves were performed as follows: 1800 cells/well were plated in 96 well plates. After 30 h, media was changed to include no toxicant (control) or toxicant at varying concentrations. The cells were then exposed for 48 h, the media was removed, and 100 μl minimum essential medium without phenol red and 20 μl MTS reagent were added. Cells were incubated, and 2 h later, plates were measured at 490 nm on an ELx 808 microplate reader (Bio-Tek Instruments, Winooski, Vt.). EC50 values were determined via nonlinear regression using Prism software (GraphPad, San Diego, Calif.).
Cytotoxicity tests in human neuroblastoma cells. The 3-(4,5-dimethylthiazol-2-yl)-5-(3-carboxymethoxyphenyl)-2-(4-sulfophenyl)-2H-tetrazolium (MTS) assay is a quantitative colorimetric assay for measurement of cellular proliferation, cytotoxicity and viability. MTS is converted to a formazan product only in living cells. MTS is similar to 3-(4,5-dimethylthiazol-2-yl)-2,5-diphenyltetrazolium bromide (MTT), which is widely used in cytotoxicity assays. The difference is that the formazan product for the MTS reagent is soluble in media while the MTT reagent is not.
To study the cytotoxicity of c-di-GMP in SH-SY5Y human neuroblastoma cells, increasing concentrations (0.0001-1000 μM) were added to the culture medium and cell viability was assessed by the MTS assay. […] Up to 100 μM, there was no effect on cell viability; at greater concentrations, a sharp decline in cell viability was observed.

CD1 mice = experiment: Lethality in CD1 mice; details: 50 μl of 200 μM c-di-GMP, after 24 h

Nc1nc(=O)c2ncn([C@@H]3OC4COP(=O)(O)O[C@H]5[C@@H](O)[C@H](n6cnc7c(=O)nc(N)[nH]c76)O[C@@H]5COP(=O)(O)OC4C3O)c2[nH]1 (stereo partly drawn) [c-di-GMP, Bis(3′-->5′)-cyclic diguanylic acid]
effect on EGF-induced activation (phosphorylation) of p44/42 MAPK [1]: did not alter | effect on acetylcholine-induced activation (phosphorylation) of p44/42 MAPK [1]: did not alter | effect on EGF-induced activation (phosphorylation) of p44/42 MAPK ([1]; listed as cyclic-di-GMP): do not inhibit | effect on acetylcholine-induced activation (phosphorylation) of p44/42 MAPK ([1]; listed as cyclic-di-GMP): do not inhibit | decrease in fluorescence ([2]; 72 h confluent cells): 36% | decrease in fluorescence ([2]; 72 h non-confluent cells): 14% | toxicity on normal rat kidney cells ([2]; 400 μM, 24 h): nontoxic | fluorescence relative to the solvent control ([2]; 20, 40, 100 μM): no decease in fluorescence relative to the solvent control | toxicity on NRK cells ([2]; 200 and 400 μM, 72 h exposure): toxicity was observed | cytotoxicity on NRK cells ([2]; 24 h exposure): little evidence of cytotoxicity | cytotoxicity on normal rat kidney cells ([2]; all relevant biological concentrations / biologically relevant doses): no cytotoxicity | Fluorescence (% control) ([2]; c-di-GMP 20 μM, 24-h confluent): 98.5 % control | Fluorescence (% control) ([2]; c-di-GMP 20 μM, 72-h confluent): 98.0 % control | Fluorescence (% control) ([2]; c-di-GMP 20 μM, 72-h non-confluent): 97.0 % control | Fluorescence (% control) ([2]; c-di-GMP 40 μM, 24-h confluent): 99.4 % control | Fluorescence (% control) ([2]; c-di-GMP 40 μM, 72-h confluent): 98.0 % control | Fluorescence (% control) ([2]; c-di-GMP 40 μM, 72-h non-confluent): 99.0 % control | Fluorescence (% control) ([2]; c-di-GMP 100 μM, 24-h confluent): 99.7 % control | Fluorescence (% control) ([2]; c-di-GMP 100 μM, 72-h confluent): 92.2 % control | Fluorescence (% control) ([2]; c-di-GMP 200 μM, 24-h confluent): 101.6 % control | Fluorescence (% control) ([2]; c-di-GMP 200 μM, 72-h confluent): 64.2 % control | Fluorescence (% control) ([2]; c-di-GMP 200 μM, 72-h non-confluent): 86.0 % control | Fluorescence (% control) ([2]; c-di-GMP 400 μM, 24-h confluent): 96.2 % control | Fluorescence (% control) ([2]; c-di-GMP 400 μM, 72-h confluent): 40.0 % control | Fluorescence (% control) ([2]; c-di-GMP 400 μM, 72-h non-confluent): 3.0 % control | apoptosis of H508 cells by microscopic examination [3]: not observed by microscopic examination | fluorescence (% of control), NRK cell proliferation ([4]; 100 μM, 48 h): 75 % of control fluorescence | fluorescence (% of control), NRK cell proliferation ([4]; 100 μM, 72 h): 87 % of control fluorescence | fluorescence (% of control), NRK cell proliferation ([4]; 100 μM, 96 h): 94 % control fluorescence | fluorescence (% of control), NRK cell proliferation ([4]; 200 μM, 96 h): 85 % of control | NRK cell proliferation ([4]; 200 μM, up to 96 h): retardation of cell proliferation that was much less pronounced than the 400-μM dose | NRK cell proliferation ([4]; 400 μM, 96-h period of exposure): little growth over the 96-h period of exposure | NRK cell proliferation ([4]; 5, 25 or 50 μM (data not shown)): not altered | stability ([5]; physiological conditions): stable | solubility ([5]; water physiological saline): soluble | cytotoxicity on human neuroblastoma cells [6]: no cytotoxicity | EC50 ([6]; Homo sapiens, SH-SY5Y cells, 48 hr exposure, MTS assay, read-out: EC50 for decrease of cell viability): 350 µM | concentration with no effect on cell viability ([6]; human, 48 h): Up to 100 μM | lethality (CD1 mice): non-lethal
